Among the test systems are A549 NSCLC; DU-145 prostate; EKVX NSCLC; HCC-2998 colon; HL-60(TB) leukemia; HOP-62 NSCLC; NCI-H23 lung; SF-539 CNS; SN12C renal; UACC-257 melanoma.
Holding throughout (assay): inhibition of tumour cell growth, NCI panel, 48 h

Here are results for eight compounds from PubChem BioAssay (NCI).

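Step 1: Grow cells in 96-well plates. Step 2: Expose to compound for 48 hours at 5 concentrations. Step 3: Interpolate endpoints linearly; if unreached, use highest concentration. At the GI50, growth is halved. TGI denotes the concentration required for complete inhibition of growth.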

As for `Oc1ccc(Cl)cc1/C=N\NC(=S)N/N=C/c1cc(Cl)ccc1O`, the GI50 was 3.75 µM in the assay with A549 NSCLC; 3.67 µM in the assay on DU-145 prostate; 3.23 µM in the assay with EKVX NSCLC; 3.55 µM in the assay on HCC-2998 colon; 1.37 µM in the assay with HL-60(TB) leukemia; 2.47 µM with HOP-62 NSCLC. For the same compound, the GI50 in the assay with NCI-H23 lung is 4.61 µM; in the assay on SF-539 CNS, 2.8 µM; in the assay with SN12C renal it was 3.12 µM; in the assay on UACC-257 melanoma it was 2.13 µM. In addition, the TGI with A549 NSCLC is over 100 µM; in the assay with DU-145 prostate it was 70 µM; in the assay on EKVX NSCLC it was over 100 µM; with HCC-2998 colon, 86.8 µM; in the assay with HL-60(TB) leukemia it was 4.23 µM; in the assay with HOP-62 NSCLC, over 100 µM. The TGI in the assay with NCI-H23 lung amounted to 67.7 µM; in the assay on SF-539 CNS, 90.8 µM; in the assay on SN12C renal, 64.7 µM; with UACC-257 melanoma it was 7.49 µM.
Turning to `CNC(c1ccncc1)C(NC)c1ccncc1` (configuration not stated), the TGI in the assay on A549 NSCLC, in the assay on DU-145 prostate, in the assay on EKVX NSCLC, in the assay with HCC-2998 colon, in the assay with HL-60(TB) leukemia and with HOP-62 NSCLC was over 100 µM in each case. For the same compound, the TGI in the assay with NCI-H23 lung, in the assay on SN12C renal and in the assay on UACC-257 melanoma was over 100 µM in each case.
`CN1CCN(c2ccc3nc(-c4ccc(OCCCCN5CCN(CCCCN6C(=O)c7cccc8cccc(c78)C6=O)CC5)cc4)[nH]c3c2)CC1`: the GI50 in the assay with A549 NSCLC is over 100 µM; in the assay on DU-145 prostate, 29.4 µM; in the assay with EKVX NSCLC, over 100 µM; in the assay on HCC-2998 colon it was over 100 µM; with HL-60(TB) leukemia, 25.1 µM; with HOP-62 NSCLC it was over 100 µM. Also, the GI50 is over 100 µM with NCI-H23 lung, 33.5 µM with SF-539 CNS and 30.3 µM in the assay with UACC-257 melanoma. In addition, the TGI with A549 NSCLC, in the assay on DU-145 prostate, with EKVX NSCLC, with HCC-2998 colon, with HL-60(TB) leukemia and in the assay with HOP-62 NSCLC was over 100 µM each time. For the same compound, the values for the TGI in the assay with NCI-H23 lung, in the assay with SF-539 CNS and with UACC-257 melanoma were over 100 µM, over 100 µM and 74.7 µM, respectively.
As for `COc1cccc2c1cc1c3c(cc4c(c32)OCO4)C(=O)N1`, the GI50 was 5.27 µM with A549 NSCLC; 8.79 µM in the assay with DU-145 prostate; 7.82 µM in the assay on HCC-2998 colon; 7.59 µM in the assay on HL-60(TB) leukemia; 6.89 µM in the assay on HOP-62 NSCLC; 3.45 µM with NCI-H23 lung. Besides, the values for the GI50 with SF-539 CNS, in the assay on SN12C renal and with UACC-257 melanoma were 4.8 µM, 2.87 µM and 27.3 µM, respectively. Besides, the TGI in the assay with A549 NSCLC was over 100 µM; in the assay on DU-145 prostate, 66.4 µM; in the assay with HCC-2998 colon it was over 100 µM; in the assay on HL-60(TB) leukemia, 27.8 µM; with HOP-62 NSCLC, 37.6 µM; in the assay on NCI-H23 lung, 13.4 µM. The TGI was 21.2 µM with SF-539 CNS, 19.6 µM in the assay on SN12C renal and over 100 µM in the assay on UACC-257 melanoma.
Regarding `Cn1cc(C2=C(c3cn(CCCCC(=N)N)c4ccccc34)C(=O)NC2=O)c2ccccc21`, the GI50 in the assay with A549 NSCLC is over 25 µM; in the assay with DU-145 prostate, over 25 µM; in the assay on HCC-2998 colon, over 25 µM; in the assay with HL-60(TB) leukemia, 16.7 µM; in the assay on HOP-62 NSCLC, over 25 µM; with NCI-H23 lung, over 25 µM. Besides, the GI50 was over 21.6 µM in the assay with SF-539 CNS, over 25 µM in the assay on SN12C renal and over 25 µM with UACC-257 melanoma. In addition, the TGI with A549 NSCLC, with DU-145 prostate, in the assay with HCC-2998 colon, with HL-60(TB) leukemia, with HOP-62 NSCLC and with NCI-H23 lung was over 25 µM in each case. For the same compound, the TGI in the assay with SF-539 CNS, with SN12C renal and with UACC-257 melanoma was over 25 µM each time.
Regarding `Nc1c(C(=O)Nc2cccc3ccccc23)sc2nc3c(cc12)C(=O)CCC3`, the GI50 in the assay on A549 NSCLC is 0.172 µM; in the assay on DU-145 prostate, 0.337 µM; with HCC-2998 colon, 0.3 µM; with HL-60(TB) leukemia it was 0.246 µM; in the assay on HOP-62 NSCLC it was 0.315 µM; with NCI-H23 lung, 0.315 µM. The values for the GI50 in the assay with SF-539 CNS, in the assay with SN12C renal and with UACC-257 melanoma were 0.152 µM, 0.539 µM and 0.183 µM, respectively. In addition, the TGI with A549 NSCLC was over 46.1 µM; with DU-145 prostate, 8.71 µM; with HL-60(TB) leukemia, 0.804 µM; in the assay on HOP-62 NSCLC, over 38.2 µM; in the assay on NCI-H23 lung, over 42.2 µM; in the assay on SF-539 CNS it was 0.456 µM. The TGI with SN12C renal is over 100 µM; in the assay with UACC-257 melanoma, over 65.8 µM.
As for `O=C(Nc1nc2ccccc2s1)c1cc(-c2ccc(F)cc2)n2nc(-c3ccccc3)cc2n1`, the GI50 in the assay on DU-145 prostate is 4.95 µM; with EKVX NSCLC, 6.69 µM; with HCC-2998 colon it was over 100 µM; in the assay with HL-60(TB) leukemia, over 100 µM; with HOP-62 NSCLC it was 2.24 µM; in the assay on NCI-H23 lung it was 2.81 µM. For the same compound, in the assay on SN12C renal, the GI50 is 6.49 µM. The TGI in the assay with DU-145 prostate is over 100 µM; in the assay on EKVX NSCLC, over 100 µM; with HCC-2998 colon it was over 100 µM; in the assay with HL-60(TB) leukemia it was over 100 µM; with HOP-62 NSCLC it was 7.02 µM; with NCI-H23 lung, over 100 µM. Also, the TGI in the assay with SN12C renal was over 100 µM.
As to `CN=C(N)N/N=C(\C)c1ccc2c(c1)Cc1ccccc1-2`, the GI50 in the assay with DU-145 prostate was 1.12 µM; in the assay on EKVX NSCLC, 2.62 µM; in the assay on HCC-2998 colon it was 1.67 µM; with HL-60(TB) leukemia, 0.399 µM; in the assay with HOP-62 NSCLC, 1.66 µM; in the assay on NCI-H23 lung it was 2.84 µM. Moreover, the GI50 in the assay on SF-539 CNS was 1.66 µM; in the assay with SN12C renal, 1.92 µM; in the assay on UACC-257 melanoma it was 1.96 µM. Further, the TGI in the assay with DU-145 prostate was 3.17 µM; in the assay with EKVX NSCLC, 13.9 µM; with HCC-2998 colon, 3.09 µM; with HL-60(TB) leukemia, 1.94 µM; with HOP-62 NSCLC, 3.2 µM; with NCI-H23 lung, 12.3 µM. Further, the TGI is 3.02 µM in the assay on SF-539 CNS, 5.38 µM in the assay with SN12C renal and 3.74 µM in the assay with UACC-257 melanoma.
